According to US10351547B2, “Somatostatin modulators and uses thereof” (priority 2016, dated 2019):
Read-outs that look alike come from different tables or passages of the source.

Target: human SSTR2 (Homo sapiens (Human), UniProt P30874)
Test: Human SSTR2 intracellular cAMP functional assay for agonists (HTRF)
Assay type: cell-based
Procedure, shortened: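 Cells bearing human SSTR2 exposed to compound for 20 minutes at 37 °C; after lysis, cAMP measured by time-resolved fluorescence (HTRF) and converted via a standard curve. EC50 calculated from cAMP versus compound concentration.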

[1] = CHO-K1 cells stably expressing human SSTR2, NKH477-stimulated cAMP, read-out: EC50 (inhibition of cAMP activities via human SST2R)

Sequence of human SSTR2 (P30874 whole entry): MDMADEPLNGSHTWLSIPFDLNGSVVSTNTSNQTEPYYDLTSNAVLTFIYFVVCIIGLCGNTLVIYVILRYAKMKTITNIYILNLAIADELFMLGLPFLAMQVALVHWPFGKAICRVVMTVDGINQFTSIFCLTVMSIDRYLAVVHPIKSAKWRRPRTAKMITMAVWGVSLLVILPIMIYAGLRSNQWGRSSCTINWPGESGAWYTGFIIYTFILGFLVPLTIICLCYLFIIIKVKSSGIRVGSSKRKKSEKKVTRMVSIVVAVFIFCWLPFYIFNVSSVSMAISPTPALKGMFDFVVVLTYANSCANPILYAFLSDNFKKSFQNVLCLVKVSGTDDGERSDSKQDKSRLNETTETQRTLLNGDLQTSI

Question: With CCNCC1CN(c2c(-c3cc(C)cc(F)c3)cnc3ccc(-c4c(C)ccc(F)c4O)cc23)C1 [2-38, 2-(4-{3-[(ethylamino)methyl]azetidin-1-yl}-3-(3-fluoro-5-methylphenyl)quinolin-6-yl)-6-fluoro-3-methylphenol] as the compound, how does the EC50 [1] read?
Answer: Its EC50 is < 10 nM.

Question: For COCC(C)(C)NCC1CN(c2c(-c3cc(C)cc(F)c3)cnc3ccc(-c4cc(F)cc(C#N)c4O)cc23)C1 [2-39, 5-fluoro-3-[3-(3-fluoro-5-methylphenyl)-4-(3-{[(1-methoxy-2-methylpropan-2-yl)amino]methyl}azetidin-1-yl)quinolin-6-yl]-2-hydroxybenzonitrile], which EC50 is on record?
Answer: Its EC50 is 100 to 1000 nM.

Question: How did the EC50 [1] turn out when Cc1cc(F)cc(-c2cnc3ccc(-c4cc(F)cc(C#N)c4O)cc3c2N2CC(CNCC(C)(C)O)C2)c1 [2-40, 5-fluoro-3-[3-(3-fluoro-5-methylphenyl)-4-(3-{[(2-hydroxy-2-methylpropyl)amino]methyl}azetidin-1-yl)quinolin-6-yl]-2-hydroxybenzonitrile] was run?
Answer: Its EC50 is < 10 nM.

Question: CCC(CO)NCC1CN(c2c(-c3cc(C)cc(F)c3)cnc3ccc(-c4cc(F)cc(C#N)c4O)cc23)C1 (centres unmarked) [2-41, 5-fluoro-3-[3-(3-fluoro-5-methylphenyl)-4-(3-{[(1-hydroxybutan-2-yl)amino]methyl}azetidin-1-yl)quinolin-6-yl]-2-hydroxybenzonitrile] was tested. Which EC50 did it give?
Answer: Its EC50 is 10 to 100 nM.

Question: For CCCNCC1CN(c2c(-c3cc(C)cc(F)c3)cnc3ccc(-c4cccc(C#N)c4O)cc23)C1 [2-42, 3-[3-(3-fluoro-5-methylphenyl)-4-{3-[(propylamino)methyl]azetidin-1-yl}quinolin-6-yl]-2-hydroxybenzonitrile], which EC50 [1] is on record?
Answer: The EC50 was < 10 nM.

Question: For Cc1cc(F)cc(-c2cnc3ccc(-c4cc(F)cc(C#N)c4O)cc3c2N2CC(CNCCO)C2)c1 [2-43, 5-fluoro-3-[3-(3-fluoro-5-methylphenyl)-4-(3-{[(2-hydroxyethyl)amino]methyl}azetidin-1-yl)quinolin-6-yl]-2-hydroxybenzonitrile], which EC50 [1] is on record?
Answer: The EC50 was < 10 nM.

Question: Which EC50 does the source give for CCN(CCO)CC1CN(c2c(-c3cc(C)cc(F)c3)cnc3ccc(-c4cc(F)cc(C#N)c4O)cc23)C1 [2-44, 3-[4-(3-{[ethyl(2-hydroxyethyl)amino]methyl}azetidin-1-yl)-3-(3-fluoro-5-methylphenyl)quinolin-6-yl]-5-fluoro-2-hydroxybenzonitrile] here?
Answer: Its EC50 is 100 to 1000 nM.

Question: With Cc1cc(F)cc(-c2cnc3ccc(-c4cc(F)cc(C#N)c4O)cc3c2N2CC(CNC3CCOC3)C2)c1 (centres unmarked) [2-45, 5-fluoro-3-[3-(3-fluoro-5-methylphenyl)-4-(3-{[(oxolan-3-yl)amino]methyl}azetidin-1-yl)quinolin-6-yl]-2-hydroxybenzonitrile] as the compound, how does the EC50 read?
Answer: The EC50 was 10 to 100 nM.

Question: How did the EC50 [1] turn out when CCCNCC1CN(c2c(-c3cc(C)cc(F)c3)cnc3ccc(-c4c(F)ccc(F)c4O)cc23)C1 [2-46, 3,6-difluoro-2-[3-(3-fluoro-5-methylphenyl)-4-{3-[(propylamino)methyl]azetidin-1-yl}quinolin-6-yl]phenol] was run?
Answer: The EC50 was < 10 nM.

Question: Cc1cc(F)cc(-c2cnc3ccc(-c4cc(F)cc(C#N)c4O)cc3c2N2CC(CN3CCC(F)(F)C3)C2)c1 [2-47, 3-(4-{3-[(3,3-difluoropyrrolidin-1-yl)methyl]azetidin-1-yl}-3-(3-fluoro-5-methylphenyl)quinolin-6-yl)-5-fluoro-2-hydroxybenzonitrile] was tested. Which EC50 did it give?
Answer: Its EC50 is 100 to 1000 nM.

Question: How did the EC50 [1] turn out when Cc1cc(F)cc(-c2cnc3ccc(-c4cc(F)cc(C#N)c4O)cc3c2N2CC(CN3CC[C@@H](F)C3)C2)c1 [2-48, 5-fluoro-3-[3-(3-fluoro-5-methylphenyl)-4-(3-{[(3R)-3-fluoropyrrolidin-1-yl]methyl}azetidin-1-yl)quinolin-6-yl]-2-hydroxybenzonitrile] was run?
Answer: Its EC50 is < 10 nM.

Question: With Cc1cc(F)cc(-c2cnc3ccc(-c4cc(F)cc(C#N)c4O)cc3c2N2CC(CN3CC[C@H](F)C3)C2)c1 [2-49, 5-fluoro-3-[3-(3-fluoro-5-methylphenyl)-4-(3-{[(3 S)-3-fluoropyrrolidin-1-yl]methyl}azetidin-1-yl)quinolin-6-yl]-2-hydroxybenzonitrile] as the compound, how does the EC50 [1] read?
Answer: The EC50 was < 10 nM.

Question: Which EC50 does the source give for Cc1cc(F)cc(-c2cnc3ccc(-c4cc(F)cc(C#N)c4O)cc3c2N2CC(CN3CCCCC3)C2)c1 [2-50, 5-fluoro-3-[3-(3-fluoro-5-methylphenyl)-4-[3-(piperidin-1-ylmethyl)azetidin-1-yl]quinolin-6-yl]-2-hydroxybenzonitrile] here?
Answer: The EC50 was 10 to 100 nM.

Question: Cc1cc(F)cc(-c2cnc3ccc(-c4cc(F)cc(C#N)c4O)cc3c2N2CC(CNCC(C)O)C2)c1 (centres unmarked) [2-51, 5-fluoro-3-[3-(3-fluoro-5-methylphenyl)-4-(3-{[(2-hydroxypropyl)amino]methyl}azetidin-1-yl)quinolin-6-yl]-2-hydroxybenzonitrile] was tested. Which EC50 did it give?
Answer: Its EC50 is 10 to 100 nM.

Question: Which EC50 does the source give for CCCNCC1CN(c2c(-c3cc(C)cc(F)c3)cnc3ccc(-c4cc(F)c(O)c(F)c4)cc23)C1 [2-52, 2,6-difluoro-4-[3-(3-fluoro-5-methylphenyl)-4-{3-[(propylamino)methyl]azetidin-1-yl}quinolin-6-yl]phenol] here?
Answer: Its EC50 is 10 to 100 nM.

Question: Which EC50 [1] does the source give for COCOc1c(C#N)cc(F)cc1-c1ccc2ncc(-c3cc(C)cc(F)c3)c(N3CC(CNCCCO)C3)c2c1 [2-53, 5-fluoro-3-[3-(3-fluoro-5-methylphenyl)-4-(3-{[(3-hydroxypropyl)amino]methyl}azetidin-1-yl)quinolin-6-yl]-2-(methoxymethoxy)benzonitrile] here?
Answer: The EC50 was < 10 nM.

Question: Cc1cc(F)cc(-c2cnc3ccc(-c4cc(F)cc(C#N)c4O)cc3c2N2CC(CNCCCO)C2)c1 [2-54, 5-fluoro-3-[3-(3-fluoro-5-methylphenyl)-4-(3-{[(3-hydroxypropyl)amino]methyl}azetidin-1-yl)quinolin-6-yl]-2-hydroxybenzonitrile] was tested. Which EC50 [1] did it give?
Answer: Its EC50 is < 10 nM.

Question: Which EC50 [1] does the source give for CCCNCC1CN(c2c(-c3cc(C)cc(F)c3)cnc3ccc(-c4cc(F)c5[nH]c(=O)[nH]c5c4)cc23)C1 [2-55, 4-fluoro-6-[3-(3-fluoro-5-methylphenyl)-4-{3-[(propylamino)methyl]azetidin-1-yl}quinolin-6-yl]-2,3-dihydro-1H-1,3-benzodiazol-2-one] here?
Answer: Its EC50 is < 10 nM.

Question: With N#Cc1cccc(-c2ccc3ncc(-c4cc(F)cc(F)c4)c(N4CCC(N)CC4)c3c2)c1OCC(=O)O [2-56, 2-{2-[4-(4-aminopiperidin-1-yl)-3-(3,5-difluorophenyl)quinolin-6-yl]-6-cyanophenoxy}acetic acid] as the compound, how does the EC50 read?
Answer: Its EC50 is 10 to 100 nM.

Question: N#Cc1cccc(-c2ccc3ncc(-c4cc(F)cc(F)c4)c(N4CCC(N)CC4)c3c2)c1OCCCC(=O)O [2-57, 4-{2-[4-(4-aminopiperidin-1-yl)-3-(3,5-difluorophenyl)quinolin-6-yl]-6-cyanophenoxy}butanoic acid] was tested. Which EC50 did it give?
Answer: Its EC50 is 10 to 100 nM.

Question: With N#Cc1cccc(-c2ccc3ncc(-c4cc(F)cc(F)c4)c(N4CC[C@@H](N)[C@H](F)C4)c3c2)c1O [2-59, 3-{4-[(3R,4R)-4-amino-3-fluoropiperidin-1-yl]-3-(3,5-difluorophenyl)quinolin-6-yl}-2-hydroxybenzonitrile] as the compound, how does the EC50 [1] read?
Answer: Its EC50 is < 10 nM.

Question: Which EC50 does the source give for CO[C@H]1CN(c2c(-c3cc(F)cc(F)c3)cnc3ccc(-c4cccc(C#N)c4O)cc23)CC[C@H]1N [2-61, 3-{4-[(3S,4R)-4-amino-3-methoxypiperidin-1-yl]-3-(3,5-difluorophenyl)quinolin-6-yl}-2-hydroxybenzonitrile] here?
Answer: Its EC50 is 10 to 100 nM.

Question: COCOc1c(C#N)cccc1-c1ccc2ncc(-c3cc(F)cc(F)c3)c(N3CC[C@H](N)[C@H](OC)C3)c2c1 [2-62, 3-{4-[(3R,4S)-4-amino-3-methoxypiperidin-1-yl]-3-(3,5-difluorophenyl)quinolin-6-yl}-2-(methoxymethoxy)benzonitrile] was tested. Which EC50 [1] did it give?
Answer: The EC50 was < 10 nM.

Question: How did the EC50 [1] turn out when CC(=O)OCCOc1c(C#N)cccc1-c1ccc2ncc(-c3cc(F)cc(F)c3)c(N3CCC(N)CC3)c2c1 [2-64, 2-{2-[4-(4-aminopiperidin-1-yl)-3-(3,5-difluorophenyl)quinolin-6-yl]-6-cyanophenoxy}ethyl acetate] was run?
Answer: Its EC50 is < 10 nM.

Question: For N#Cc1cccc(-c2ccc3ncc(-c4cc(F)cc(F)c4)c(N4CCC(N)CC4)c3c2)c1OCCO [2-65, 3-[4-(4-aminopiperidin-1-yl)-3-(3,5-difluorophenyl)quinolin-6-yl]-2-(2-hydroxyethoxy)benzonitrile], which EC50 [1] is on record?
Answer: The EC50 was < 10 nM.

Question: CO[C@@H]1CN(c2c(-c3cc(F)cc(F)c3)cnc3ccc(-c4cccc(C#N)c4O)cc23)CC[C@@H]1N [2-66, 3-{4-[(3R,4S)-4-amino-3-methoxypiperidin-1-yl]-3-(3,5-difluorophenyl)quinolin-6-yl}-2-hydroxybenzonitrile] was tested. Which EC50 did it give?
Answer: Its EC50 is 10 to 100 nM.

Question: How did the EC50 [1] turn out when NC(=O)c1cccc(-c2ccc3ncc(-c4cc(F)cc(F)c4)c(N4CCC(N)CC4)c3c2)c1OC(CO)CO [2-67, 3-[4-(4-aminopiperidin-1-yl)-3-(3,5-difluorophenyl)quinolin-6-yl]-2-[(1,3-dihydroxypropan-2-yl)oxy]benzamide] was run?
Answer: The EC50 was < 10 nM.

Question: Which EC50 does the source give for N#Cc1cccc(-c2ccc3ncc(-c4cc(F)cc(OC5COC5)c4)c(N4CCC(N)CC4)c3c2)c1O [2-69, 3-[4-(4-aminopiperidin-1-yl)-3-[3-fluoro-5-(oxetan-3-yloxy)phenyl]quinolin-6-yl]-2-hydroxybenzonitrile] here?
Answer: The EC50 was 10 to 100 nM.

Question: How did the EC50 turn out when CO/N=C/c1cc(F)cc(-c2cnc3ccc(-c4cccc(C#N)c4O)cc3c2N2CCC(N)CC2)c1 [2-70, 3-[4-(4-aminopiperidin-1-yl)-3-{3-fluoro-5-[(1E)-(methoxyimino)methyl]phenyl}quinolin-6-yl]-2-hydroxybenzonitrile] was run?
Answer: Its EC50 is 10 to 100 nM.

Question: Which EC50 does the source give for N#Cc1cccc(-c2ccc3ncc(-c4cc(F)cc(CN5CC(F)(F)C5)c4)c(N4CCC(N)CC4)c3c2)c1O [2-71, 3-[4-(4-aminopiperidin-1-yl)-3-{3-[(3,3-difluoroazetidin-1-yl)methyl]-5-fluorophenyl}quinolin-6-yl]-2-hydroxybenzonitrile] here?
Answer: Its EC50 is 100 to 1000 nM.

Question: Which EC50 [1] does the source give for COCCOc1c(C#N)cccc1-c1ccc2ncc(-c3cc(F)cc(F)c3)c(N3CCC(N)CC3)c2c1 [2-72, 3-[4-(4-aminopiperidin-1-yl)-3-(3,5-difluorophenyl)quinolin-6-yl]-2-(2-methoxyethoxy)benzonitrile] here?
Answer: The EC50 was < 10 nM.

Question: N#Cc1cccc(-c2ccc3ncc(-c4cc(F)cc(F)c4)c(N4CCC(N)CC4)c3c2)c1OC1COC1 [2-73, 3-[4-(4-aminopiperidin-1-yl)-3-(3,5-difluorophenyl)quinolin-6-yl]-2-(oxetan-3-yloxy)benzonitrile] was tested. Which EC50 did it give?
Answer: The EC50 was 10 to 100 nM.
